From publication PMC6925188, “PBRM1 acts as a p53 lysine-acetylation reader to suppress renal tumor growth” (Nature Communications, 2019)

System: HCT116 cells
Assay: RT-qPCR of p53 targets, HCT116 parental and PBRM1 KO cells
Type: cell-based
Set-up: PUMA expression / PIDD expression: reference not given here
Conditions: 50 μM, 24 h
Experimental: Total RNA was extracted from cells using the RNeasy Plus Mini Kit (74136, Qiagen), and the concentration was measured using the NanoDrop ND-1000 system (Thermo Scientific). Reverse transcription was performed using the First Strand cDNA Synthesis Kit (NP100042, Origen) with 0.5 µg total RNA. Real-time PCR was performed with Maxima SYBR Green qPCR Master Mix (K0253, Thermo Scientific) using the Roche LightCycler 480. The primers used for real-time PCR are listed as follows: q-GAPDH-F: […], q-GAPDH-R: […], q-CDKN1A-F: […], q-CDKN1A-R: […], q-MDM2-F: […], q-MDM2-R: […], q-BAX-F: […], q-BAX-R: […], q-PUMA-F: […], q-PUMA-R: […], q-NOXA-F: […], q-NOXA-R: […], q-GADD45a-F: […], q-GADD45a-R: […], q-APAF1-F: […], q-APAF1-R: […], q-BAI1-F: […], q-BAI1-R: […], q-BCL2A1-F: […], q-BCL2A1-R: g[…], q-BTG2-F: […], q-BTG2-R: […], q-CDC25c-F: […], q-CDC25c-R: […], q-FAS-F: […], q-FAS-R: […], q-PIDD-F: […], q-PIDD-R: […], q-RPRM-F: […], q-RPRM-R: […], q-TNFRSF10B-F: […] and q-TNFRSF10B-R: […]. GAPDH was used as an internal control. Data are shown as mean ± SEM for three independent experiments.
Supplementary Figure 4. PBRM1 is required for full p53 transcriptional activity.
a, b. HCT116 parental and PBRM1 KO cells (combination of eight clones) were treated with
(a). RNA was extracted and reverse transcribed from the indicated cells treated with 50 μM
etoposide. […]
p-values were calculated using the paired two -tailed Student’s t-test. c, d. […]

COc1cc([C@@H]2c3cc4c(cc3[C@@H](O[C@@H]3O[C@@H]5CO[C@@H](C)O[C@H]5[C@H](O)[C@H]3O)[C@H]3COC(=O)[C@H]23)OCO4)cc(OC)c1O [Etoposide]
APAF1 expression (HCT116-PBRM1-KOs, assay 1): 3.8371
BAX expression (HCT116-PBRM1-KOs, assay 1): 1.7963
BCL2A1 expression (HCT116-PBRM1-KOs, assay 1): 19.7667
BTG2 expression (HCT116-PBRM1-KOs, assay 1): 11.7942
CDKN1A expression (HCT116-PBRM1-KOs, assay 1): 22.8639
GADD45A expression (HCT116-PBRM1-KOs, assay 1): 3.9586
MDM2 expression (HCT116-PBRM1-KOs, assay 1): 3.9724
NOXA expression (HCT116-PBRM1-KOs, assay 1): 3.0525
PIDD expression (HCT116-PBRM1-KOs, assay 1): 2.3295
PUMA expression (HCT116-PBRM1-KOs, assay 1): 4.8793
RPRM expression (HCT116-PBRM1-KOs, assay 1): 2.5491
APAF1 expression (HCT116-PBRM1-KOs, assay 2): 1.6529
BAX expression (HCT116-PBRM1-KOs, assay 2): 2.3457
BCL2A1 expression (HCT116-PBRM1-KOs, assay 2): 6.9761
BTG2 expression (HCT116-PBRM1-KOs, assay 2): 7.21
CDKN1A expression (HCT116-PBRM1-KOs, assay 2): 14.0419
GADD45A expression (HCT116-PBRM1-KOs, assay 2): 2.1289
MDM2 expression (HCT116-PBRM1-KOs, assay 2): 5.9039
NOXA expression (HCT116-PBRM1-KOs, assay 2): 3.6808
PIDD expression (HCT116-PBRM1-KOs, assay 2): 1.4093
PUMA expression (HCT116-PBRM1-KOs, assay 2): 7.235
RPRM expression (HCT116-PBRM1-KOs, assay 2): 2.7797
APAF1 expression (HCT116-PBRM1-KOs, assay 3): 1.6644
BAX expression (HCT116-PBRM1-KOs, assay 3): 2.3134
BCL2A1 expression (HCT116-PBRM1-KOs, assay 3): 9.2884
BTG2 expression (HCT116-PBRM1-KOs, assay 3): 7.1602
CDKN1A expression (HCT116-PBRM1-KOs, assay 3): 10.4953
GADD45A expression (HCT116-PBRM1-KOs, assay 3): 3.1241
MDM2 expression (HCT116-PBRM1-KOs, assay 3): 5.945
NOXA expression (HCT116-PBRM1-KOs, assay 3): 3.6554
PIDD expression (HCT116-PBRM1-KOs, assay 3): 1.4897
PUMA expression (HCT116-PBRM1-KOs, assay 3): 3.2117
RPRM expression (HCT116-PBRM1-KOs, assay 3): 1.3828
APAF1 expression (HCT116, assay 1): 4.2871
BAX expression (HCT116, assay 1): 2.7702
BCL2A1 expression (HCT116, assay 1): 22.8639
BTG2 expression (HCT116, assay 1): 12.7286
CDKN1A expression (HCT116, assay 1): 28.6408
GADD45A expression (HCT116, assay 1): 4.4076
MDM2 expression (HCT116, assay 1): 4.6589
NOXA expression (HCT116, assay 1): 3.0738
PIDD expression (HCT116, assay 1): 3.0525
PUMA expression (HCT116, assay 1): 4.4076
RPRM expression (HCT116, assay 1): 3.6301
APAF1 expression (HCT116, assay 2): 2.1372
BAX expression (HCT116, assay 2): 2.6851
BCL2A1 expression (HCT116, assay 2): 13.3173
BTG2 expression (HCT116, assay 2): 8.1398
CDKN1A expression (HCT116, assay 2): 17.6304
GADD45A expression (HCT116, assay 2): 2.5584
MDM2 expression (HCT116, assay 2): 5.7624
NOXA expression (HCT116, assay 2): 3.8683
PIDD expression (HCT116, assay 2): 2.0705
PUMA expression (HCT116, assay 2): 5.3332
RPRM expression (HCT116, assay 2): 2.9362
APAF1 expression (HCT116, assay 3): 2.021
BAX expression (HCT116, assay 3): 2.7226
BCL2A1 expression (HCT116, assay 3): 11.9548
BTG2 expression (HCT116, assay 3): 8.4269
CDKN1A expression (HCT116, assay 3): 15.6707
GADD45A expression (HCT116, assay 3): 3.0105
MDM2 expression (HCT116, assay 3): 5.4264
NOXA expression (HCT116, assay 3): 4.6765
PIDD expression (HCT116, assay 3): 1.9453
PUMA expression (HCT116, assay 3): 3.1939
RPRM expression (HCT116, assay 3): 2.0097
